The subject of one series is TGFBR2 mRNA. Kind of series: remaining TGFBR2 mRNA relative to control siRNA (off-target knock-down) (fraction of control); quantification method: branched DNA; higher = less knock-down. Here is the method: (§1)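 Screen-hit siRNA duplexes (19-mer plus 3' dTdT overhang) were transiently transfected into HaCaT cells in 12-well plates. After 48 h, TGFBR1 and TGFBR2 mRNA were quantified by branched DNA assay (QuantiGene, normalised to HPRT1) or by SYBR qPCR (normalised to HPRT1/SMAD4). Values are the remaining mRNA relative to control-siRNA-transfected cells; 1-2 biological replicates.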

The next series relates to TGFBR1 mRNA. Kind of series: remaining TGFBR1 mRNA relative to control siRNA (off-target knock-down) (fraction of control); quantification method: branched DNA; higher = less knock-down. As to the method: as §1

Turning to GAUGAAGAAGAGCGCAGCATT, the “remaining TGFBR2 mRNA” value with TGFBR2 mRNA was found to be 1.08. Besides, the “remaining TGFBR1 mRNA” value in the series with TGFBR1 mRNA stood at 1.27.
For UCACCUUGCAGGAAGGAAGTT the same measures were 0.71 and 1.26.
For UGGCCGUCAAUGUAUUUCUTT the same measures were 0.7 and 1.25.
For GAUGGACUGCAUACAUUGGTT, in that order: 0.87 and 0.29.
Consider GGGCUGUCAAUGACAGCUUTT, for which, in the series on TGFBR2 mRNA, the “remaining TGFBR2 mRNA” value turned out to be 0.6. In addition, in the series with TGFBR1 mRNA, the “remaining TGFBR1 mRNA” value worked out at 0.82.
For UGCAUUGGCUCCCACUUCATT the same measures were 0.33 and 0.26.
Turning to CAGAGCGAUCACCUUGAACTT, the “remaining TGFBR2 mRNA” value in the series on TGFBR2 mRNA came out at 0.17. For the same sequence, in the series on TGFBR1 mRNA, the “remaining TGFBR1 mRNA” value turned out to be 0.66.
AGAAGUGUGACACGGGUCUTT: in the series on TGFBR2 mRNA, the “remaining TGFBR2 mRNA” value amounted to 0.15. In the series on TGFBR1 mRNA, the “remaining TGFBR1 mRNA” value is 0.93.
Take AUGGUGUGGCUCGUCGUGCTT: in the series on TGFBR2 mRNA, the “remaining TGFBR2 mRNA” value turned out to be 0.46. For the same sequence, the “remaining TGFBR1 mRNA” value in the series on TGFBR1 mRNA worked out at 0.45.
On to UUGUAAAAACCAGGCGACCTT, for which, in the series on TGFBR2 mRNA, the “remaining TGFBR2 mRNA” value is 0.33. Also, the “remaining TGFBR1 mRNA” value with TGFBR1 mRNA was determined as 1.48.
For UCUCAUUUACCCUUUGGGGTT the same measures were 0.33 and 0.67.
For the sequence AUGUAUAGUCACGCAGUUCTT, the “remaining TGFBR2 mRNA” value in the series on TGFBR2 mRNA was 0.24. For the same sequence, in the series with TGFBR1 mRNA, the “remaining TGFBR1 mRNA” value was determined as 0.98.
For UCCUUGGUCUCAUCUGCCUTT the same measures were 0.43 and 1.05.
For UCAAGUGCAGUAGUAGAUGTT, in that order: 0.51 and 1.09.
For UCAAGUGCAUCUCCACAGCTT the same measures were 0.23 and 1.29.
Regarding AUGCACCGAACAGCUCCAUTT, in the series with TGFBR2 mRNA, the “remaining TGFBR2 mRNA” value was 0.31. In addition, in the series on TGFBR1 mRNA, the “remaining TGFBR1 mRNA” value amounted to 1.56.
For UUCUUCUGGUCCAUACUCATT the same measures were 0.66 and 0.45.
For CUCCUUGGCACACUUCUCATT, in that order: 0.34 and 0.93.
For GGGUUUUCCCAGUCACGACTT, in that order: 0.54 and 0.91.
As for UCCCGUACUGGUUCUGGGGTT, in the series with TGFBR2 mRNA, the “remaining TGFBR2 mRNA” value turned out to be 0.81. Further, the “remaining TGFBR1 mRNA” value in the series with TGFBR1 mRNA is 1.1.
Turning to UGUACUUCUCCUUGGAGAATT, the “remaining TGFBR2 mRNA” value with TGFBR2 mRNA is 0.64. In addition, the “remaining TGFBR1 mRNA” value in the series on TGFBR1 mRNA was determined as 0.8.
For AGGCUAUAAGCUCGCCUACTT, in that order: 0.25 and 0.84.
For AAUUGGCUCCACAGUCUUUTT the same measures were 0.44 and 1.23.
For GGUGCCAGGCAUUUUAUCCTT the same measures were 0.9 and 1.06.
For the sequence UCCAAGUCGAGAAGAGACCTT, the “remaining TGFBR2 mRNA” value in the series on TGFBR2 mRNA was 0.46. Moreover, the “remaining TGFBR1 mRNA” value in the series on TGFBR1 mRNA came out at 0.9.
For AGUUCUCUCAAUUGCUUACTT, in that order: 0.54 and 0.92.
For UCCAUGGAUGCAGAAGUCCTT the same measures were 0.56 and 0.96.
For GAAGGUGUGAGUGAGGUCATT, in that order: 1.17 and 0.19.
AUGUAUAGGUAGUGCACAGTT: the “remaining TGFBR2 mRNA” value with TGFBR2 mRNA turned out to be 0.35. Also, the “remaining TGFBR1 mRNA” value in the series on TGFBR1 mRNA was found to be 0.98.
For AAAAACCCUUUCCUGGGGCTT the same measures were 0.21 and 0.36.
For UACAUGAUGUAAACGAUAATT the same measures were 0.54 and 0.44.
For AUAUGUAAGACCUUCCUUCTT, in that order: 0.25 and 0.38.
For the sequence CUUGGUACAGCACAUGGUUTT, the “remaining TGFBR2 mRNA” value in the series on TGFBR2 mRNA is 0.82. In the series with TGFBR1 mRNA, the “remaining TGFBR1 mRNA” value worked out at 0.55.
Consider UAUGCUCCUCUUCCUGUUCTT, for which the “remaining TGFBR2 mRNA” value in the series with TGFBR2 mRNA came to 0.57. In addition, the “remaining TGFBR1 mRNA” value in the series with TGFBR1 mRNA was determined as 1.43.
For UCCAGCUGCAUUCCUCGCUTT the same measures were 0.35 and 0.75.
As for UGGAAGACGCUUUAAAGGCTT, the “remaining TGFBR2 mRNA” value with TGFBR2 mRNA is 0.48. Further, the “remaining TGFBR1 mRNA” value with TGFBR1 mRNA is 0.85.
For UAACGUGUGUAUGUCUGGCTT, in that order: 0.69 and 0.3.
For CCCAAGUCAUCCUGGUUGUTT the same measures were 0.67 and 0.83.
As to UCCACGAUGAAGGGAUGCUTT, in the series with TGFBR2 mRNA, the “remaining TGFBR2 mRNA” value came out at 0.7. Further, in the series on TGFBR1 mRNA, the “remaining TGFBR1 mRNA” value was 1.06.
For UAUAACUCUCAGGGGAUAUTT the same measures were 0.4 and 1.07.
In the case of UUGGAGCCCUUUCCUUUCUTT, in the series on TGFBR2 mRNA, the “remaining TGFBR2 mRNA” value was 0.26. In addition, the “remaining TGFBR1 mRNA” value in the series with TGFBR1 mRNA is 1.07.
For AGAGAUUCCUUUUCUUCACTT the same measures were 0.79 and 0.24.
Consider UGUUCUUGAAGUCCCGCAGTT, for which, in the series on TGFBR2 mRNA, the “remaining TGFBR2 mRNA” value came out at 0.78. For the same sequence, the “remaining TGFBR1 mRNA” value with TGFBR1 mRNA amounted to 1.69.
For UAUCUCAUGAAAGCGCUUCTT, in that order: 0.25 and 1.12.
For AUUAUGUCCUCUACGAUUATT the same measures were 0.49 and 0.76.
For AUGCCAUUGUGCAUUGUCATT the same measures were 0.36 and 0.85.
For the sequence UCUGGUCUCAGCCAUUGAATT, the “remaining TGFBR2 mRNA” value with TGFBR2 mRNA amounted to 1.08. The “remaining TGFBR1 mRNA” value in the series with TGFBR1 mRNA was found to be 0.26.
For UGUGUAGCACAUGGGACACTT the same measures were 0.73 and 1.05.
With UUCCUUGGCUGUGAUGCUCTT, in the series with TGFBR2 mRNA, the “remaining TGFBR2 mRNA” value amounted to 0.11. Besides, in the series on TGFBR1 mRNA, the “remaining TGFBR1 mRNA” value was determined as 0.93.
For CUGACCAUGCAGAGGAUGATT, in that order: 0.82 and 0.83.
Regarding AUGCUCCCUCUCAUACUCUTT, the “remaining TGFBR2 mRNA” value in the series with TGFBR2 mRNA was found to be 0.39. Also, in the series on TGFBR1 mRNA, the “remaining TGFBR1 mRNA” value came out at 0.9.
Turning to UGCAGUGAUAAAGGCUACATT, the “remaining TGFBR2 mRNA” value with TGFBR2 mRNA turned out to be 0.67. Further, in the series on TGFBR1 mRNA, the “remaining TGFBR1 mRNA” value is 0.34.
For AGACUGCAAAUAUUCCUGATT, in that order: 0.49 and 1.31.
For UUUGGAGCUCCCCAAACGCTT, in that order: 0.26 and 0.39.
Take UUGUGCUGCAUACGGAGCCTT: the “remaining TGFBR2 mRNA” value in the series on TGFBR2 mRNA was 0.45. Further, in the series on TGFBR1 mRNA, the “remaining TGFBR1 mRNA” value was determined as 1.69.
For AGACUACUGUGGCCAGUAATT, in that order: 1.1 and 1.22.
In the case of AUGGUGAGAAGACACAGGCTT, the “remaining TGFBR2 mRNA” value with TGFBR2 mRNA turned out to be 0.54. Also, in the series with TGFBR1 mRNA, the “remaining TGFBR1 mRNA” value stood at 1.33.
For AGCCCAUGCCCUUCACAAUTT, in that order: 0.89 and 0.71.
For GCUGAAUGAGGGUAGUCUUTT the same measures were 0.64 and 0.28.
For UCUUGGCUUUGACACCGAGTT the same measures were 0.39 and 0.48.
On to AGCCAGAAACUCAGACACCTT, for which the “remaining TGFBR2 mRNA” value with TGFBR2 mRNA was determined as 0.67. Moreover, in the series with TGFBR1 mRNA, the “remaining TGFBR1 mRNA” value turned out to be 0.99.

For the origin of these results see the supplement of paper PMC3068080.
